In US7825093B2 (priority 2006, dated 2010):
Entries after “also recorded” stand apart in the source; their conditions may differ.

Key:
human Kv1.3 channel = human Kv1.3 channel (Homo sapiens, UniProt P22001); assay type: cell-based
human PBMCs [1] = assay type: cell-based
human PBMCs [2] = assay type: cell-based; remark: listed apart in the source
AT-EAE model = test system: AT-EAE model; parameters: species or system Lewis rats; conditions: rat, in vivo, sc
[3] = test system: IFN-g production in human whole blood; assay type: cell-based
[4] = test system: CD40L on T cells in human whole blood; assay type: cell-based
[5] = test system: IL-2R on T cells in human whole blood; assay type: cell-based
[6] = rat, in vivo, iv
[7] = test system: IL-2 production in human whole blood
human PBMCs [8] = assay type: cell-based; remark: listed apart in the source
[9] = target: HEK 293 cells overexpressing human Kv1.3 (Homo sapiens, UniProt P22001); assay: Immunohistochemistry analysis of binding to HEK 293 cells overexpressing human Kv1.3; conditions: 5 μg/ml
Sequence of HEK 293 cells overexpressing human Kv1.3 (P22001 whole entry): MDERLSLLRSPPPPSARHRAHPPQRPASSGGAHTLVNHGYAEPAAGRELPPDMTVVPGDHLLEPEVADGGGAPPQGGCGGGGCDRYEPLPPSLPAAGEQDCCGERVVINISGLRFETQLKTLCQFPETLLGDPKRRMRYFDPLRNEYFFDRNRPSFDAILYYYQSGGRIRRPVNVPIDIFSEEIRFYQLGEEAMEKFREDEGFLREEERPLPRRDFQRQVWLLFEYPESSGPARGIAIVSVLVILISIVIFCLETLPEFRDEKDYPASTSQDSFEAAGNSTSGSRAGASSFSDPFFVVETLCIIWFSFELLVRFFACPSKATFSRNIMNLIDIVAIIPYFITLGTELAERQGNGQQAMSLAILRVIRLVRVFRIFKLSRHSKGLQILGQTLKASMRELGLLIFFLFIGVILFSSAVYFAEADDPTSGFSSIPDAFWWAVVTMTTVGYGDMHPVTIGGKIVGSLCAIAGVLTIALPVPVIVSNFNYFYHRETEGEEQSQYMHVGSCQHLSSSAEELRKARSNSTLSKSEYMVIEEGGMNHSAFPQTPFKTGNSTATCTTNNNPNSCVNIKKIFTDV
Protocol: Immunohistochemistry analysis of Fc-L10-ShK[1-35] binding to HEK 293 cells overexpressing human Kv1.3. HEK 293 cells overexpressing human Kv1.3 (HEK Kv1.3) were obtained from BioFocus plc (Cambridge, UK) and maintained per manufacturer's recommendation. The parental HEK 293 cell line was used as a control. Cells were plated on Poly-D-Lysine 24 well plates (#35-4414; Becton-Dickinson, Bedford, Mass.) and allowed to grow to approximately 70% confluence. HEK KV1.3 were plated at 0.5×10e5 cells/well in 1 ml/well of medium. HEK 293 cells were plated at a density of 1.5×10e5 cells/well in 1 ml/well of medium. Before staining, cells were fixed with formalin (Sigma HT50-1-1 Formalin solution, diluted 1:1 with PBS/0.5% BSA before use) by removing cell growth medium, adding 0.2 ml/well formalin solution and incubating at room temperature for ten minutes. Cells were stained by incubating with 0.2 ml/well of 5 μg/ml Fc-L10-ShK[1-35] in PBS/BSA for 30′ at room temperature. Fc-L10-ShK[1-35] was aspirated and then the cells were washed one time with PBS/0.5% BSA. Detection antibody (Goat F(ab)2 anti-human IgG-phycoerythrin; Southern Biotech Associates, Birmingham, Ala.) was added to the wells at 5 μg/ml in PBS/0.5% BSA and incubated for 30′ at room temperature. Wash cells once with PBS/0.5% BSA and examine using confocal microscopy (LSM 510 Meta Confocal Microscope; Carl Zeiss AG, Germany). […]

[10] = target: Kv1.3 transfected HEK 293 cells (Homo sapiens, UniProt P22001); assay: Whole cell immunoassay (ELISA) on fixed HEK 293 cells overexpressing Kv1.3; assay type: binding
Sequence of Kv1.3 transfected HEK 293 cells (P22001 whole entry): as above
Protocol: Our peptibody reagent can be a useful and convenient tool for monitoring Kv1.3 channel expression in patients and have utility in diagnostic applications. The procedure shown in FIG. 34A and FIG. 34B follows.
FIG. 34A. A whole cell immunoassay was performed to show binding of intact Fc-L10-ShK[1-35] to Kv1.3 transfected HEK 293 cells (BioFocus plc, Cambridge, UK). Parent HEK 293 cells or HEK Kv1.3 cells were plated at 3×10e4 cells/well in poly-D-Lysine coated ninety-six well plates (#35-4461; Becton-Dickinson, Bedford, Mass.). Cells were fixed with formalin (Sigma HT50-1-1 Formalin solution, diluted 1:1 with PBS/0.5% BSA before use) by removing cell growth medium, adding 0.2 ml/well formalin solution and incubating at room temperature for 25 minutes and then washing one time with 100 μl/well of PBS/0.5% BSA. Wells were blocked by addition of 0.3 ml/well of BSA blocker (50-61-00; KPL 10% BSA Diluent/Blocking Solution, diluted 1:1 with PBS; KPL, Gaithersburg, Md.) followed by incubation at room temperature, with shaking, for 3 hr. Plates were washed 2 times with 1×KP Wash Buffer (50-63-00; KPL). […] Absorbance was read at 450 nm on a Molecular Devices SpectroMax 340 (Sunnyvale, Calif.).
FIG. 34B. […] Absorbances were read at 405 nm after stopping reactions by addition of 0.1 ml/well of 1% SDS.

Sequence of human Kv1.3 channel (P22001 whole entry): as above

Molecule	block of human Kv1.3 current (in words) (human Kv1.3 channel)	inhibition of IFNγ production (human PBMCs [1])	inhibition of IFNg production (human PBMCs [2])	average body weight lost (AT-EAE model) [g]	disease severity and survival (in words) (AT-EAE model)	onset of disease (AT-EAE model) [days]	thapsigargin-induced IFN-g production (in words) [3]	thapsigargin-induced upregulation of CD40L on T cells (in words) [4]	thapsigargin-induced upregulation of the IL-2R on T cells (in words) [5]	time with significant suppression of Kv1.3 current (<70 POC) by 5% serum Test solutions [6] [h]	thapsigargin-induced IL-2 production (in words) [7]	inhibition of T cell proliferation (human PBMCs [8])	staining of HEK 293 cells stably transfected with human Kv1.3 [9]	binding to fixed cells that overexpress Kv1.3 [10]
CC[C@H](C)[C@@H]1NC(=O)[C@@H](NC(=O)[C@H](CO)NC(=O)[C@@H](N)CCCNC(=N)N)CSSC[C@@H](C(=O)O)NC(=O)[C@H]([C@@H](C)O)NC(=O)CNC(=O)[C@@H]2CSSC[C@@H]3NC(=O)[C@H](CCC(N)=O)NC(=O)[C@H](Cc4ccccc4)NC(=O)[C@H](C)NC(=O)[C@H]([C@@H](C)O)NC(=O)[C@H](CSSC[C@H](NC(=O)[C@H](Cc4ccccc4)NC(=O)[C@H](CO)NC(=O)[C@H](CC(C)C)NC(=O)[C@H](CCCNC(=N)N)NC(=O)[C@H](Cc4ccc(O)cc4)NC(=O)[C@H](CCCCN)NC(=O)[C@H](CCSC)NC(=O)[C@H](CO)NC(=O)[C@H](Cc4cnc[nH]4)NC(=O)[C@H](CCCCN)NC3=O)C(=O)N[C@@H](CCCNC(=N)N)C(=O)N[C@@H](CCCCN)C(=O)N[C@@H]([C@@H](C)O)C(=O)N2)NC(=O)[C@H](CCCNC(=N)N)NC(=O)[C@H](CO)NC(=O)[C@H](CCCCN)NC(=O)[C@@H]2CCCN2C(=O)[C@H]([C@@H](C)CC)NC(=O)[C@H]([C@@H](C)O)NC(=O)[C@H](CC(=O)O)NC1=O [ShK, reference compound]	potently block Kv1.3	only a partial inhibition	only partial inhibition	30	developed severe disease and died	4	suppressed	suppressed	suppressed	≤ 1	suppressed			
Fc-L10-ShK[1-35]: Fc region of human IgG1 fused via L10 linker to Kv1.3 inhibitor peptide ShK[1-35]		complete inhibition of the response	nearly complete inhibition					suppressed	suppressed			blocked T cell proliferation; also recorded: potently inhibits proliferation of T cells in a dose-dependent manner	stains HEK 293 cells stably transfected with human Kv1.3	dose-dependent increase in response; also recorded: high affinity binding to its target
